From patent US20190091174A1, “METHOD OF REDUCING SEIZURE TYPE E[…] A DRAVET PATIENT” (ZOGENIX INTERNATIONAL LIMITED, priority 2017, published 2019)

What was measured:
[1] = test system: patients with Dravet syndrome; assay: Study 1 (ZX008-1501/1502): Phase 3, double-blind, placebo-controlled, liquid fenfluramine formulation added to current antiepileptic drugs; format: in vivo, human; settings: end of the T+M Period
Protocol: The first 119 subjects to be randomized in both identical studies combined were analyzed and reported as Study 1 (FIG. 1), covered by a Statistical Analysis Plan (SAP).
Primary and key secondary endpoints in the Study 1 SAP were pre-determined. All patients were treated twice per day over a period of 14 weeks using an oral syringe to administer the formulation. The treatment period included a two-week titration period and a 12-week maintenance period.
The initial results of Study 1 are outlined below. The randomized, double blind, placebo controlled, Phase 3 study enrolled 119 patients across sites in the United States, Canada, Europe and Australia. The median age of patients was 8 years, the mean age of patients was 9 years (range, 2-18 years) (FIG. 2).
Patients were titrated to their target dose over two weeks, and then remained at that fixed dose for 12 weeks. The mean baseline convulsive seizure frequency across the study groups was approximately 40 seizures per month. 110 (92%) patients completed the study (85% 0.8 mg/kg/day; 100% 0.2 mg/kg/day; 93% placebo). […]
The mean number of convulsive seizure free days, defined as a day for which diary data are available and no convulsive seizures have been reported, was determined for each treatment group during the Baseline and T+M Periods. […]

[2] = test system: patients with Dravet syndrome; settings: long-term fenfluramine treatment; cited from earlier work

CCNC(C)Cc1cccc(C(F)(F)F)c1 (racemic) [Fenfluramine, 3-trifluoromethyl-N-ethylamphetamine]
reduction from Baseline in non-convulsive seizures (all types), % [SD] ([1]; 0.2 mg/kg/day): 9.7% (140.46)
reduction from Baseline in non-convulsive seizures (all types), % [SD] ([1]; 0.8 mg/kg/day): 59.1% (40.14)
heart valve defects monitored by echocardiography [2]: No clinically relevant defects
incidence of all types of seizures [2]: effectively reduced the incidence of all types of seizures
seizure-free condition, share of test subjects [2]: 66.6%
